Test results from patent US10987408B2, “Compositions and methods for modulating toll-like receptor 2 activation” (THE CLEVELAND CLINIC FOUNDATION, priority 2010, dated 2021).

Legend:
Type in all cases: cell-based
HUVEC [1] = experiment: HUVEC tube formation assay
Procedure: (§1) HUVEC or MLEC cells were seeded on Matrigel-coated plates (BD Bioscience). Medium was supplemented with VEGF or protein adducts as indicated, and cells were further incubated at 37° C. for 8 h. Tube formation was observed using a phase contrast inverted microscope, and photographs were taken from each well. The data were quantified by measuring the length of tubes with ImagePro software.

[2] = system: mouse aortic endothelial cells (MAEC); experiment: Mouse aortic ring assay
Procedure: The mouse aortic ring assay was performed as previously described (Mahabeleshwar, G. H. et al., Methods Mol Med. 129:197-208, 2006).

HUVEC [3] = experiment: Cell adhesion assay
Procedure: We performed cell adhesion assays as described elsewhere (Byzova, T. V. et al., J Cell Biol. 143(7):2081-2092, 1998). Briefly, 10^4 HUVEC or MLEC cells were added to ligand coated wells of a 96-well plate and incubated for 1 h in the presence of CEP-adduct or VEGF as indicated. The cells were washed with and fixed with 4% paraformaldehyde in PBS. Thereafter cells were contrasted by hematoxylin staining and photographs were taken.

[4] = system: Mouse Lung Microvascular EC (MLEC); experiment: MLEC tube formation assay; details: TLR2^−/− EC
Procedure: Mouse lungs were excised, minced, and digested using a collagenase-dispase reagent (Roche Diagnostic). Digests were strained and the resulting cell suspension was plated on flasks coated with 1 mg/ml fibronectin. Thereafter, endothelial cells were isolated and characterized as described previously (Mahabeleshwar, G. H. et al., Methods Mol Med. 129:197-208, 2006).
as §1

Substance	pro-angiogenic effect, tube formation (HUVEC [1])	pro-angiogenic effect, aortic ring sprouting ([2]; wild type / TLR2^+/+ mice)	EC adhesion stimulation (HUVEC [3])	EC response, tube formation [4]	EC sprouting, aortic ring ([2]; MyD88^−/− cells)	EC response, aortic ring sprouting ([2]; TLR2^−/− mice)
Pam3CSK4	as effective a stimulator as CEP or VEGF	induced robust sprouting	as effective a stimulator as CEP or VEGF			
VEGF				not affected by the lack of TLR2	not affected by the lack of MyD88	not affected by the lack of TLR2
